Results on 6 sequences are retold here after patent US9657064B2, “Cell penetrating peptides” (UNIVERSITE DE GENEVE, priority 2012, dated 2017).

Assay [1] relates to ovalbumin CD8+ epitope specific immune response. The assay is described as follows: In vivo vaccination of mice with different CPP-OVA fusion polypeptides, Pentamer staining in blood (Example 5). To be noted: for Fold increase in proliferation compared to CPP14: 10 nmol s.c. twice at 14 days of interval, with anti-CD40 and poly-IC, relative to CPP14-OVA reference. The procedure: The experiment was performed as described in Example 3.
Four to eight mice per group were vaccinated twice subcutaneously at 14 days of interval with 10 nmol of fusion polypeptides comprising one of the CPPs indicated in Table 2 fused to the ovalbumin CD8^+ epitope (SEQ ID NO: 3) flanked by the spacers of SEQ ID NO: 11 and SEQ ID NO: 12 at the N-terminal and C-terminal part of the CD8^+ epitope, respectively. Each CPP-OVA fusion polypeptide was injected in PBS with 100 μg anti-CD40. 50 μg poly-IC was injected intramuscularly 7 days after the second vaccination. Immune response was monitored in the blood with a Pentamer staining followed by flow cytometry analysis.
The results are presented in Table 3 as fold increase relative to a CPP-OVA fusion polypeptide of reference comprising CPP14 of SEQ ID NO: 22.

For assay [2], the system named is murine lymphoid cells EL4. The assay is described as follows: In vitro transduction of fluorescein-labeled CPP-OVA fusion polypeptides, flow cytometry. The assay is classed as cell-based. The following applies: 0.9 μM, 2 h at 37° C., ratio of mean fluorescence index between cells alone and loaded cells. The procedure: (§1) Transduction into cells was monitored using different CPP-OVA fusion polypeptides comprising CPP1, CPP2, CPP8, or CPP10. Each of these CPPs fused with the immunodominant CD8^+ T cell epitope from ovalbumin were chemically synthesized and labeled with fluorescein. 5.10^5 cells were incubated for 2 h at 37° C. with 0.9 μM of the different fusion polypeptides. The cells tested were human lymphoid cells K562, murine lymphoid cells EL4, human astrocytoma cells U251 and murine astrocytoma cells GL261. The cells were washed in an acid buffer to remove all the membrane bound peptide and stained for viability with Live-Dead Yellow. Analysis was performed by flow cytometry. The index of fluorescence indicates the level of fluorescence above the natural auto-fluorescence of the cells. It is the ratio of the mean fluorescence index measured by flow cytometry between the cells alone and the cells loaded with CPP-OVA fusion polypeptides.
(Flow cytometry measures light scatter and fluorescence of single cells or particles in a stream.)

Assay [3] has as its system murine astrocytoma cells GL261. Described as above. Format: cell-based. To be noted: 0.9 μM, 2 h at 37° C., ratio of mean fluorescence index between cells alone and loaded cells. The procedure: as §1
The subject of assay [4] is human lymphoid cells K562. The description is as above. Format: cell-based. The following applies: 0.9 μM, 2 h at 37° C., ratio of mean fluorescence index between cells alone and loaded cells. As for the experimental part: as §1
In assay [5] the test system is human astrocytoma cells U251. The assay is described as above. The assay is classed as cell-based. The following applies: 0.9 μM, 2 h at 37° C., ratio of mean fluorescence index between cells alone and loaded cells. As for the experimental part:
as §1

In assay [6] the test system is ovalbumin-specific CD8+ T cells. The assay is described as follows: Vaccination of mice with CPP-OVA fusion polypeptides, multimer staining of splenocytes (Example 3). The following applies: 2 s.c. vaccinations at 14 days of interval, 20 μg fusion polypeptide + 100 μg anti-CD40, 50 μg poly-IC i.m., PBS control 0.18%. Format: in vivo. The procedure:
Mice were vaccinated twice sub-cutaneously at 14 days of interval with 20 μg of each CPPs-OVA fusion polypeptides and 100 μg anti-CD40, 50 μg poly-IC was injected intramuscularly 10 days after the boost, the mice were sacrificed and the splenocytes stained with a multimer and anti-CD8. Negative control with PBS (A); CPP1-OVA (B); CPP2-OVA (C).
To test the capacity of the polypeptides corresponding to constructs 1 and 2 to stimulate antigen-specific CD8^+ T cells in more stringent conditions, they were tested in vivo in a vaccination protocol (FIG. 2). In order to elicit an in vivo response, the polypeptide vaccine must be taken up by naturally present antigen presenting cells in the injected animal, and stimulation of polyclonal T cells must be highly efficient if ovalbumin-specific T cells are to be detected ex vivo. The read-out for these experiments was flow cytometry of splenocytes, using MHC-peptide multimers to detect ovalbumin-specific CD8^+ T cells.

As to “KRYKNRVA [CPP7, 8-amino acid-long fragment of Zebra, positions 178 to 185; negative control, tested as CPP-OVA fusion, reference compound]”, the “immunogenic potential compared to the reference fusion polypeptide comprising CPP14” value in assay [1] (10 nmol s.c. twice) is “lower immunogenic potential”. Also, the “Fold increase in proliferation compared to CPP14” value (“Fold increase in proliferation” for short) in assay [1] amounted to 0.65.
As for KRYKNRVASRKSRAKFK (CCP1) [CPP1], in assay [1], the “Fold increase in proliferation” value came out at 1.74. The index of fluorescence in assay [2] worked out at 4.8; in assay [3] it was 2.4; in assay [4], 3; in assay [5], 4.5.
For the sequence KRYKNRVASRKSRAKFKQLLQHYREVAAAK [CPP2], the “Fold increase in proliferation” value in assay [1] stood at 1.41. Moreover, the index of fluorescence in assay [2] was 57.7; in assay [3], 20.8; in assay [4], 15; in assay [5], 25.1.
“KRYKNRVASRKSRAKFKQLLQHYREVAAAKEQLESIINFEKLTEWT [construct 2]”: the “CD8+ T cells multimer positive (ovalbumin-specific CD8+ T cells)” value in assay [6] is given as “over 1%”.
Regarding QHYREVAAAKSSEND [CPP8], the “Fold increase in proliferation” value in assay [1] worked out at 1.28. The index of fluorescence in assay [2] was determined as 2.5; in assay [3] it was 1.4; in assay [4], 1.9; in assay [5] it was 2.
In the same order, the values of REVAAAKSSENDRLRLLLK [CPP10] are 2.17, 4, 1.9, 3.7 and 4.
